For three compounds, Kd and IC50 results are on record in US20240287138A1, “CYCLIC PEPTIDES FOR INHIBITING TNF RECEPTOR 1 ACTIVITY” (Merck Sharp & Dohme LLC, priority 2023, published 2024).

In one test the target is T1, human TNFR2 ECD protein (Homo sapiens, UniProt P20333).
T1 construct: HRV 3C protease cleavage site (C); 6His (C, cleaved yes); made in house; host or cells: Sf21 insect cells (baculovirus), secreted
T1 sequence (P20333 23-257): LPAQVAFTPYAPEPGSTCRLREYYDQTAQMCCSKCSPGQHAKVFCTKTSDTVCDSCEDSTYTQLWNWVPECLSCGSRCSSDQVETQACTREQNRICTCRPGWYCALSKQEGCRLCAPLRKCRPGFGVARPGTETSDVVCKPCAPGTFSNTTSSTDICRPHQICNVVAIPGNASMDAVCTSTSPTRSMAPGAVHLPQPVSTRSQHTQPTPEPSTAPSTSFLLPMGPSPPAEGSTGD
Briefly: SPR off-target binding (selectivity) to human TNFR2 ECD. As to the method: B. Procedure for Binding Affinity and Selectivity measured by SPR
Affinity and selectivity for hTNFR1 and TNFR2 was determined using SPR. Human TNFR1 or TNFR2 genes (extracellular domain only) were synthesized with a C-terminal Avi-tag, HRV 3C protease cleavage site followed by a 6His-tag for affinity purification. The final gene product was cloned into pBAC™-1 vector (Millipore Sigma) for expression testing in insect cells. Constructs were transfected into Sf21 cells for baculovirus generation followed by protein expression analysis in Sf21 and Tni cell lines. Large scale expression in Sf21 cells was performed using baculovirus infected insect cells (BIICs) infected at a MOI=2.0 grown for 72 h. Target proteins secreted into the media were harvested via centrifugation and concentrated using diafiltration. TNFR was purified by immobilized metal ion affinity chromatography (IMAC) using a Ni-Sepharose HisTrap™ column (Cytiva™). Isolated TNFR had His tag removed using HRV 3C protease followed by additional purification using Ni-NTA chromatography. Biotinylation was performed on Ni-NTA flow-through fractions concentrated to 45 μM and treated with BirA ligase (1:100, μg/μg ratio) in 50 mM Tris pH 7.5, 150 mM NaCl, 50 μM biotin, 10 mM magnesium acetate, 10 mM ATP at 4° C. for 20 h. Final purification of biotin-TNFR and buffer exchange into 20 mM HEPES pH 7.5, 150 mM NaCl was performed using a HiLoad® Superdex® 200 26/60 column (Cytiva™). Highly purified protein was aliquoted and stored at −80° C.
The SPR assay uses a Cytiva™ 8K or 8K+ biosensor instrument to measure the kinetics of peptide analytes binding to captured human TNFR1 extracellular domain (ECD) protein; peptide analytes are also evaluated for any off-target binding to human TNFR2 ECD protein in parallel. Recombinant human TNFR1 ECD and human TNFR2 ECD proteins, biotinylated via engineered C-terminal avi-tags, are immobilized to a regenerable streptavidin biosensor chip surface (Cytiva™ Biotin CAPture kit, Series S; cat. #28920234). Peptide analytes binding to immobilized human TNFR1 ECD protein and their subsequent dissociation are conducted in a buffer of 10 mM HEPES pH 7.4, 150 mM NaCl, 3 mM EDTA, 0.05% P20,2% DMSO under laminar flow conditions and measured in response units (RU), which are directly proportional to the accumulated mass on the surface of the biosensor chip; the biosensor chip surface is regenerated via Cytiva™ proprietary methods between the evaluation of each peptide analyte. […] The SPR assay determines the association and dissociation rate constants, kon and koff, for each peptide analyte and, from these values, calculates the binding affinity, […] reported in Table 2.

Test [1] has as its target T2, TNFα-induced NF-κB signal transduction pathway (TNFR1 signaling) in THP-1 cells (Homo sapiens, UniProt P19438).
T2 sequence (P19438 30-455): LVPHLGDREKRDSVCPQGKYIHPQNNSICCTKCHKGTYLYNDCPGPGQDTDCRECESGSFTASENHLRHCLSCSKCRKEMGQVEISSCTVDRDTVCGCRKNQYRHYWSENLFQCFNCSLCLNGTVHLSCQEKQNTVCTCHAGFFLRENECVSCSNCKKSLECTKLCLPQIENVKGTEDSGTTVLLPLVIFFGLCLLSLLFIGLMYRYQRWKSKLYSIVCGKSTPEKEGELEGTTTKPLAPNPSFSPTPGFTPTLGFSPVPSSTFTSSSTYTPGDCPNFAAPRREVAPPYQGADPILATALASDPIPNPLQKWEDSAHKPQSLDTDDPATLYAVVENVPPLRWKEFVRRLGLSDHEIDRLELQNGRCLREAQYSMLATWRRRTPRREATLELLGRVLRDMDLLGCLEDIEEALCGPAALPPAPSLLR
Briefly: THP-1 Lucia NF-κB reporter cell assay, inhibition of TNFα-induced NF-κB signaling. The note with it: THP-1 NF-κB Lucia reporter cells, 10 ng/mL TNFα, 16-18 h, secreted luciferase; read-out: THP-1 IC50. Format: cell-based. In outline:
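Macrocyclic peptides were preincubated 1 h at 37 °C with THP-1 NF-κB-Lucia reporter cells (20,000 cells/well) in antibiotic-free RPMI 1640/10% FBS, then stimulated with 10 ng/mL human TNFα overnight (16-18 h). Secreted luciferase in supernatant was read by luminescence; IC50 from 4-parameter logistic fits.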

Numbered stars: 1 amine (or outer) side, 2 acyl side, 3 side chain; on linkers, the order of the positions; unused ones are H or OH. Bridge positions count the residues as written; N and C are the ends. Square brackets hold non-standard residues; d marks the D form. Peptide text beside a SMILES is read from it. Trp(βS-Me,7-OMe) = COc1cccc2c([C@H](C)[C@H](N)C(=O)O)c[nH]c12; Trp(7-Cl) = N[C@@H](Cc1c[nH]c2c(Cl)cccc12)C(=O)O; X8 = O=C([C@@H]1C[C@@H](O)[C@H](N[*:1])C1)[*:2]; Phe(4-COOH) = N[C@@H](Cc1ccc(C(=O)O)cc1)C(=O)O; Trp(7-aza) = N[C@@H](Cc1c[nH]c2ncccc12)C(=O)O; X38 = CC(C)(CO)CN(CC(=O)[*:2])[*:1]; Pip(4-aza) = O=C(O)[C@@H]1CNCCN1; 4Pal = N[C@@H](Cc1ccncc1)C(=O)O; NMeE = CN[C@@H](CCC(=O)O)C(=O)O; Pip = O=C(O)[C@@H]1CCCCN1; αMeS = C[C@](N)(CO)C(=O)O; Nle = CCCC[C@H](N)C(=O)O; Nme = COCCNCC(=O)O; Sar = CNCC(=O)O

As to `CCCC[C@@H]1NC(=O)[C@@H]2C[C@@H](O)[C@@H](C2)NC(=O)[C@H]([C@@H](C)c2c[nH]c3c(OC)cccc23)NC(=O)CN(C)C(=O)[C@H](Cc2ccc(O)cc2)NC(=O)[C@H](Cc2ccc(C(=O)O)cc2)NC(=O)[C@](C)(CO)NC(=O)[C@H](Cc2c[nH]c3c(Cl)cccc23)NC(=O)[C@H](Cc2ccncc2)NC(=O)[C@H](CC(N)=O)NC(=O)[C@H](CCC(=O)O)N(C)C(=O)[C@H](Cc2c[nH]c3ccccc23)NC(=O)[C@@H]2CNCCN2C(=O)[C@H](Cc2ccncc2)NC1=O` [SEQ ID NO. 34] (cyclo([4Pal][Trp(7-Cl)][αMeS][Phe(4-COOH)]Y[Sar][Trp(βS-Me,7-OMe)][X8][Nle][4Pal][Pip(4-aza)]W[NMeE]N)), the equilibrium dissociation constant (Kd) (as a rule, the free concentration of one partner at which half of the binding sites on the other are occupied at equilibrium, for simple one-to-one binding) on human TNFR2 ECD protein was above 1000 nM. Besides, the concentration for half-maximal inhibition (IC50) (as a rule, the concentration needed to halve the response being measured) in test [1] was 0.7 nM.

In the case of `CCCC[C@@H]1NC(=O)CSC[C@@H](C(N)=O)NC(=O)[C@H]([C@@H](C)c2c[nH]c3c(OC)cccc23)NC(=O)CN(C)C(=O)[C@H](Cc2ccc(O)cc2)NC(=O)[C@H](Cc2ccc(C(=O)O)cc2)NC(=O)[C@](C)(CO)NC(=O)[C@H](Cc2c[nH]c3c(Cl)cccc23)NC(=O)[C@H](Cc2ccncc2)NC(=O)[C@H](CC(N)=O)NC(=O)CN(CC(C)(C)CO)C(=O)[C@H](Cc2c[nH]c3ncccc23)NC(=O)[C@@H]2CCCCN2C(=O)[C@H](Cc2ccncc2)NC1=O` [SEQ ID NO. 61] ({CH2CO}-[Nle][4Pal][Pip][Trp(7-aza)][X38]N[4Pal][Trp(7-Cl)][αMeS][Phe(4-COOH)]Y[Sar][Trp(βS-Me,7-OMe)]C-NH2; thioether N-14), the Kd on human TNFR2 ECD protein is above 1000 nM. Also, the IC50 in test [1] was 3.6 nM.

As for `CCCC[C@@H]1NC(=O)CSC[C@@H](C(N)=O)NC(=O)[C@H]([C@@H](C)c2c[nH]c3c(OC)cccc23)NC(=O)CN(C)C(=O)[C@H](Cc2ccc(O)cc2)NC(=O)[C@H](Cc2ccc(C(=O)O)cc2)NC(=O)[C@](C)(CO)NC(=O)[C@H](Cc2c[nH]c3c(Cl)cccc23)NC(=O)[C@H](Cc2ccncc2)NC(=O)[C@H](CC(N)=O)NC(=O)CN(CCOC)C(=O)[C@H](Cc2c[nH]c3ncccc23)NC(=O)[C@@H]2CCCCN2C(=O)[C@H](Cc2ccncc2)NC1=O` [SEQ ID NO. 62] ({CH2CO}-[Nle][4Pal][Pip][Trp(7-aza)][Nme]N[4Pal][Trp(7-Cl)][αMeS][Phe(4-COOH)]Y[Sar][Trp(βS-Me,7-OMe)]C-NH2; thioether N-14), the Kd at human TNFR2 ECD protein was above 1000 nM. The IC50 in test [1] came out at 4.4 nM.
